Here are results for 43 compounds from US8575158B2, “1-phenyl-substituted heterocyclyl derivatives and their use as prostaglandin D2 receptor modulators” (Actelion Pharmaceuticals Ltd., priority 2010, dated 2013).

The target in this test is T1, hCRTH2 receptor (Homo sapiens, UniProt Q9Y5Y4).
T1 construct: expressed in transfected cells; host or cells: HEK293
T1 sequence (Q9Y5Y4 1-395): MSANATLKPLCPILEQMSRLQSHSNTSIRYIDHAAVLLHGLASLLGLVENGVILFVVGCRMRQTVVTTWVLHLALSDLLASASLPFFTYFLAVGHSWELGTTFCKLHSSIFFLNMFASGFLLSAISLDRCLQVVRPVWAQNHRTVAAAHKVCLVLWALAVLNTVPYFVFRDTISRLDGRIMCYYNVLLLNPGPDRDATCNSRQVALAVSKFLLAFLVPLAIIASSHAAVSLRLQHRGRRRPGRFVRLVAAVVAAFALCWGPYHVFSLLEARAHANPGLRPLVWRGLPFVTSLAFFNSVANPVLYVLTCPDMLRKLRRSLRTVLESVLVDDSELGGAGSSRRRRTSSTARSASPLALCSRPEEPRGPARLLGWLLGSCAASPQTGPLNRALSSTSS
Nature of the test: Radioligand displacement assay (3H-PGD2) on hCRTH2 receptor membranes. It counts as binding. The settings on record: antagonistic activity; 3H-PGD2 displacement on HEK293-hCRTH2 membrane fragments. For orientation: Displacement assays read how much labelled ligand stays bound in the presence of the test substance.

One may read the IC50 as the point on the concentration scale where inhibition reaches its midpoint. Read a low IC50 as greater potency in that assay. With `O=C(O)COc1ccc(F)cc1C1c2ccccc2CCN1C(=O)OCCc1ccccc1Cl` (racemic) [Example 177, (±)-1-(2-Carboxymethoxy-5-fluoro-phenyl)-3,4-dihydro-1H-isoquinoline-2-carboxylic acid 2-(2-chloro-phenyl)-ethyl ester], the IC50 is 27.5 nM. This counts as double-digit nanomolar.

As to `O=C(O)COc1ccc(F)cc1C1c2ccccc2CCN1C(=O)Oc1cccc(Cl)c1` (racemic) [Example 178, (±)-1-(2-Carboxymethoxy-5-fluoro-phenyl)-3,4-dihydro-1H-isoquinoline-2-carboxylic acid 3-chloro-phenyl ester], the IC50 was 687 nM. Against the preceding compound, the IC50 is about 25-fold higher.

The compound `O=C(O)COc1ccc(Cl)cc1C1c2cccc(F)c2CCN1C(=O)OCCc1ccccc1Cl` (racemic) [Example 179, (±)-1-(2-Carboxymethoxy-5-chloro-phenyl)-5-fluoro-3,4-dihydro-1H-isoquinoline-2-carboxylic acid 2-(2-chloro-phenyl)-ethyl ester] yielded an IC50 of 39.5 nM.

The compound `CC1(C)CN(C(=O)OCc2ccccc2)C(c2cc(Cl)ccc2OCC(=O)O)c2ccccc21` (racemic) [Example 180, (±)-1-(2-Carboxymethoxy-5-chloro-phenyl)-4,4-dimethyl-3,4-dihydro-1H-isoquinoline-2-carboxylic acid benzyl ester] returned an IC50 of 151 nM.

For the compound `CCS(=O)(=O)c1ccc2c(c1)C(c1cc(F)ccc1OCC(=O)O)N(C(=O)OCc1ccccc1)CC2` (racemic) [Example 181], the IC50 is 572 nM.

`CS(=O)(=O)c1ccc(OCC(=O)O)c(C2c3ccccc3CCN2C(=O)OCc2ccccc2)c1` (racemic) [Example 182] yielded an IC50 of 308 nM.

As for `O=C(O)COc1ccc(S(=O)(=O)c2ccccc2)cc1C1c2ccccc2CCN1C(=O)OCc1ccccc1` (racemic) [Example 183], the IC50 is 64 nM.

Compound `CCS(=O)(=O)c1ccc(OCC(=O)O)c(C2c3ccccc3CCN2C(=O)OCc2ccccc2)c1` (racemic) [Example 184] registered a half-inhibitory concentration (IC50) of 346 nM.

Compound `CS(=O)(=O)c1cccc2c1CCN(C(=O)OCc1ccccc1)C2c1cc(F)ccc1OCC(=O)O` (racemic) [Example 185] yielded a half-maximal inhibitory concentration (IC50) of 78.7 nM.

`CCS(=O)(=O)c1cccc2c1CCN(C(=O)OCc1ccccc1)C2c1cc(F)ccc1OCC(=O)O` (racemic) [Example 186] returned an IC50 of 311 nM.

Consider `O=C(O)COc1ccc(F)cc1C1c2cccc(S(=O)(=O)c3ccccc3)c2CCN1C(=O)OCc1ccccc1` (racemic) [Example 187], for which the IC50 stood at 241 nM.

The compound `O=C(O)COc1ccc(-c2cncnc2)cc1C1c2ccccc2CCN1C(=O)OCc1ccccc1` (racemic) [Example 188, (±)-1-(2-Carboxymethoxy-5-pyrimidin-5-yl-phenyl)-3,4-dihydro-1H-isoquinoline-2-carboxylic acid benzyl ester] yielded a half-inhibitory concentration (IC50) of 89.4 nM.

As for `O=C(O)COc1ccc(-c2ccc(F)cc2)cc1C1c2ccccc2CCN1C(=O)OCc1ccccc1` (racemic) [Example 189, (±)-1-(4-Carboxymethoxy-4′-fluoro-biphenyl-3-yl)-3,4-dihydro-1H-isoquinoline-2-carboxylic acid benzyl ester], the concentration for half-maximal inhibition (IC50) was found to be 23.3 nM.

As for `O=C(O)COc1ccc(F)cc1C1c2ccccc2CCN1C(=O)COCc1cccc(Cl)c1` (racemic) [Example 190], the IC50 came to 16.9 nM.

Compound `O=C(O)COc1ccc(F)cc1C1c2ccccc2CCN1C(=O)COCc1ccc(Cl)cc1` (racemic) [Example 191] returned a half-inhibitory concentration (IC50) of 33.3 nM.

`Cc1ccccc1COCC(=O)N1CCc2ccccc2C1c1cc(F)ccc1OCC(=O)O` (racemic) [Example 192] returned a half-inhibitory concentration (IC50) of 11.1 nM.

In turn, `Cc1cccc(COCC(=O)N2CCc3ccccc3C2c2cc(F)ccc2OCC(=O)O)c1` (racemic) [Example 193] had an IC50 of 27.7 nM.

Compound `Cc1ccc(COCC(=O)N2CCc3ccccc3C2c2cc(F)ccc2OCC(=O)O)cc1` (racemic) [Example 194] showed an IC50 of 90.2 nM. Compared with the last compound, the IC50 is about 3.3-fold higher.

In turn, `COc1cccc(COCC(=O)N2CCc3ccccc3C2c2cc(F)ccc2OCC(=O)O)c1` (racemic) [Example 195] came in with an IC50 of 36.3 nM.

`COc1ccc(COCC(=O)N2CCc3ccccc3C2c2cc(F)ccc2OCC(=O)O)cc1` (racemic) [Example 196]: the IC50 was 146 nM.

The compound `Cn1ccc(COCC(=O)N2CCc3ccccc3C2c2cc(F)ccc2OCC(=O)O)n1` (racemic) [Example 197, (±)-(4-Fluoro-2-{2-[2-(1-methyl-1H-pyrazol-3-ylmethoxy)-acetyl]-1,2,3,4-tetrahydro-isoquinolin-1-yl}-phenoxy)-acetic acid] came in with a half-maximal inhibitory concentration (IC50) of 323 nM.

Compound `COc1ccccc1COCC(=O)N1CCc2ccccc2C1c1cc(F)ccc1OCC(=O)O` (racemic) [Example 198, (±)-(4-Fluoro-2-{2-[2-(2-methoxy-benzyloxy)-acetyl]-1,2,3,4-tetrahydro-isoquinolin-1-yl}-phenoxy)-acetic acid] showed an IC50 of 19 nM. Against the preceding compound, the IC50 is about 17-fold lower.

As for `O=C(O)COc1ccc(F)cc1C1c2ccccc2CCN1C(=O)NCc1ccccc1` (racemic) [Example 199], the IC50 amounted to 54 nM.

Regarding `O=C(O)COc1ccc(F)cc1C1c2ccccc2CCN1C(=O)NCCc1ccccc1` (racemic) [Example 200], the IC50 worked out at 31 nM.

Compound `COc1ccccc1CNC(=O)N1CCc2ccccc2C1c1cc(F)ccc1OCC(=O)O` (racemic) [Example 201] yielded an IC50 of 21 nM.

As for `COc1ccccc1CNC(=O)N1CCc2ccccc2C1c1cc(Cl)ccc1OCC(=O)O` (racemic) [Example 202], the IC50 was 7.29 nM.

As to `O=C(O)COc1ccc(F)cc1C1c2ccccc2CCN1C(=O)NCc1ccccc1Cl` (racemic) [Example 203], the IC50 was 27.9 nM.

`O=C(O)COc1ccc(F)cc1C1c2ccccc2CCN1C(=O)NCCc1ccccc1Cl` (racemic) [Example 204, (±)-(2-{2-[2-(2-Chloro-phenyl)-ethylcarbamoyl]-1,2,3,4-tetrahydro-isoquinolin-1-yl}-4-fluoro-phenoxy)-acetic acid] yielded an IC50 of 83 nM.

`O=C(O)COc1ccc(F)cc1C1c2ccccc2CCN1C(=O)CNS(=O)(=O)c1ccccc1` (racemic) [Example 205] registered an IC50 of 928 nM. This IC50 is about 11-fold higher than that of the compound before.

As for `Cc1noc(C)c1S(=O)(=O)NCC(=O)N1CCc2ccccc2C1c1cc(F)ccc1OCC(=O)O` (racemic) [Example 206], the IC50 was found to be 819 nM.

Consider `O=C(O)COc1ccc(F)cc1C1c2ccccc2CCN1C(=O)CNS(=O)(=O)c1cccc(F)c1` (racemic) [Example 207], for which the IC50 is 347 nM. Compared with the last compound, the IC50 is about 2.4-fold lower.

As for `O=C(O)COc1ccc(F)cc1C1c2ccccc2CCN1C(=O)CNS(=O)(=O)c1ccccc1F` (racemic) [Example 208], the IC50 amounted to 983 nM. Compared with the last compound, the IC50 is about 2.8-fold higher.

Consider `O=C(O)COc1ccc(F)cc1C1c2ccccc2CCN1C(=O)CNS(=O)(=O)c1ccc(F)c(F)c1` (racemic) [Example 209], for which the IC50 is 644 nM.

In turn, `CN(CC(=O)N1CCc2ccccc2C1c1cc(F)ccc1OCC(=O)O)S(=O)(=O)c1ccccc1` (racemic) [Example 210] showed an IC50 of 423 nM.

Regarding `CN(CC(=O)N1CCc2ccccc2C1c1cc(F)ccc1OCC(=O)O)S(=O)(=O)c1cccc(F)c1` (racemic) [Example 211], the IC50 was found to be 261 nM.

The compound `CN(CC(=O)N1CCc2ccccc2C1c1cc(F)ccc1OCC(=O)O)S(=O)(=O)c1ccc(F)c(F)c1` (racemic) [Example 212] displayed an IC50 of 920 nM. This IC50 is about 3.5-fold higher than that of the compound before.

`NC(=O)c1ccc(OCC(=O)O)c(C2c3ccccc3CCN2C(=O)OCc2ccccc2)c1` (racemic) [Example 213, (±)-1-(5-Carbamoyl-2-carboxymethoxy-phenyl)-3,4-dihydro-1H-isoquinoline-2-carboxylic acid benzyl ester] yielded an IC50 of 344 nM.

On to `O=C(O)COc1ccc(-c2noc(=S)[nH]2)cc1C1c2ccccc2CCN1C(=O)OCc1ccccc1` (racemic) [Example 214, (±)-1-[2-Carboxymethoxy-5-(5-thioxo-4,5-dihydro-[1,2,4]oxadiazol-3-yl)-phenyl]-3,4-dihydro-1H-isoquinoline-2-carboxylic acid benzyl ester], for which the IC50 was 147 nM.

On to `O=C(O)COc1cc(F)ccc1C1c2ccccc2CCN1C(=O)OCc1ccccc1` (racemic) [Example 215, (±)-1-(2-Carboxymethoxy-4-fluoro-phenyl)-3,4-dihydro-1H-isoquinoline-2-carboxylic acid benzyl ester], for which the IC50 is 27 nM.

Compound `O=C(O)COc1cccc(F)c1C1c2ccccc2CCN1C(=O)OCc1ccccc1` (racemic) [Example 216, (±)-1-(2-Carboxymethoxy-6-fluoro-phenyl)-3,4-dihydro-1H-isoquinoline-2-carboxylic acid benzyl ester] yielded an IC50 of 182 nM.

`O=C(O)CCCOc1ccc(F)cc1C1c2ccccc2CCN1C(=O)OCc1ccccc1` (racemic) [Example 217, (±)-1-[2-(3-Carboxy-propoxy)-5-fluoro-phenyl]-3,4-dihydro-1H-isoquinoline-2-carboxylic acid benzyl ester] had an IC50 of 110 nM.

`N#Cc1ccc(OCC(=O)O)c(C2c3ccccc3CCN2C(=O)[C@@H]2C[C@H]2c2ccccc2)c1` (mixture of isomers) [Example 218, (±)-{4-Cyano-2-[2-(trans-2-phenyl-cyclopropanecarbonyl)-1,2,3,4-tetrahydro-isoquinolin-1-yl]-phenoxy}-acetic acid] yielded an IC50 of 13.4 nM.

In turn, `N#Cc1ccc(OCC(=O)O)c(C2c3ccccc3CCN2C(=O)OCc2ccccc2)c1` (racemic) [Example 219, (±)-1-(2-Carboxymethoxy-5-cyano-phenyl)-3,4-dihydro-1H-isoquinoline-2-carboxylic acid benzyl ester] had an IC50 of 4.72 nM. Against the preceding compound, the IC50 is about 2.8-fold lower.
